Experimental data as given in patent US6326371A, “Pyrudyl and pyrimidylpiperazine derivatives” (Pharmacia Aktiebolag, priority 1992, dated 2001).
Where a name gives a salt, the structure may show the parent alone.

Target: T1, 5-HT2 receptors (Rattus norvegicus, UniProt P14842)
T1 construct: essentially as described by Leysen et al. (Mol. Pharmacol. 21, 301-14, 1982) using; from tissue
Assay: Affinity to 5-HT2 receptors (Test 1, 3H-ketanserin binding)
Conditions: 3H-ketanserin as ligand
Experimental: Test 1. Affinity to 5-HT2 receptors.
The binding assay is carried out essentially as described by Leysen et al. (Mol. Pharmacol. 21, 301-14, 1982) using ^3 H-ketanserin as ligand.

T1 sequence (P14842 whole entry): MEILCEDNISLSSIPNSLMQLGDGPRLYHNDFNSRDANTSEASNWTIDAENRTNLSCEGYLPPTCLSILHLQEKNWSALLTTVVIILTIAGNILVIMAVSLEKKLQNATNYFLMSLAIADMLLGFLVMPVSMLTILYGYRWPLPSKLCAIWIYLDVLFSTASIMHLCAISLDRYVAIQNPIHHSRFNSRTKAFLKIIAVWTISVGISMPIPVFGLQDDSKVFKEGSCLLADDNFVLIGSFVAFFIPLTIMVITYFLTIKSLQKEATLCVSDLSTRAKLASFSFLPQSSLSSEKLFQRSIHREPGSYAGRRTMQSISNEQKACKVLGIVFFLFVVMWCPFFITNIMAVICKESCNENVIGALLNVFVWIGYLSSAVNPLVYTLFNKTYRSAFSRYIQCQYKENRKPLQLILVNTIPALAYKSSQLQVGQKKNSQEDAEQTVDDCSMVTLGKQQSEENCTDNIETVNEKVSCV

**Q.** With `Fc1ccc(N(CCCN2CCN(c3ccccn3)CC2)c2ccc(F)cc2)cc1` [1:1, 1-{3-[Bis-(4-fluorophenyl)amino]propyl}-4-(2-pyridyl)-piperazine-dihydrochloride] as the compound, how does the Ki read?
**A.** 18 nM

**Q.** For `Fc1ccc(C(OCCN2CCN(c3ccccn3)CC2)c2ccc(F)cc2)cc1` [3:1, 4-{2-[(4.4'-Difluorobenzhydryl)oxyl]ethyl}-1-(2-pyridyl)piperazine dihydrochloride], which Ki is on record?
**A.** 11 nM
